# Reference: patent US12077503B2, “Substituted cyclic amides and their use as herbicides” (FMC CORPORATION, priority 2015, dated 2024)
# Experiments:
# Assay type in all cases: in vivo
# [1] = system: ivy-leaved morning glory (Ipomoea hederacea); experiment: Test G Post-Emergence Protocol; settings: Ipomoea, post-emergence, 312 h; for pest or weed control at 15.625 g/ha: 15.625 g ai/ha, evaluated after 13 days (100=total damage to plant; 0=no damage to plant), read-out: Morningglory, Ivy-leaved damage rating; for pest or weed control at 62.5 g/ha: 62.5 g ai/ha, read-out: Morningglory, Ivy-leaved damage rating (100=total damage to plant; 0=no damage to plant); for pest or weed control at 62.5 g/ha / pest or weed control at 250 g/ha: evaluated after 13 days; for pest or weed control at 250 g/ha: 250 g ai/ha, read-out: damage to plant, Morningglory, Ivy-leaved (100=total damage to plant; 0=no damage to plant)
# In short: (§1)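 Seedlings grown 8 days in soil in a glasshouse (24/16 °C day/night, 14 h light, 65% humidity) were sprayed post-emergence with compound in acetone/water 50:50 plus 0.5% Tween 20 at 15.625, 62.5 or 250 g/ha. Damage was scored after 13 days on a 0–100 scale (100 = total damage).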
# [2] = system: velvetleaf (Abutilon theophrasti); experiment: Test G Post-Emergence Protocol; settings: Abutilon theophrasti, post-emergence, 312 h; for pest or weed control at 15.625 g/ha: 15.625 g ai/ha, evaluated after 13 days (100=total damage to plant; 0=no damage to plant), read-out: Velvetleaf damage rating; for pest or weed control at 62.5 g/ha: 62.5 g ai/ha, read-out: Velvetleaf damage rating (100=total damage to plant; 0=no damage to plant); for pest or weed control at 62.5 g/ha / pest or weed control at 250 g/ha: evaluated after 13 days; for pest or weed control at 250 g/ha: 250 g ai/ha, read-out: damage to plant, Velvetleaf (100=total damage to plant; 0=no damage to plant)
# In short: as §1
# [3] = system: barnyardgrass (Echinochloa crus-galli); experiment: Test G Post-Emergence Protocol; settings: Echinochloa crus-galli, post-emergence, 312 h; for pest or weed control at 15.625 g/ha: 15.625 g ai/ha, evaluated after 13 days (100=total damage to plant; 0=no damage to plant), read-out: Barnyardgrass damage rating; for pest or weed control at 62.5 g/ha: 62.5 g ai/ha, read-out: Barnyardgrass damage rating (100=total damage to plant; 0=no damage to plant); for pest or weed control at 62.5 g/ha / pest or weed control at 250 g/ha: evaluated after 13 days; for pest or weed control at 250 g/ha: 250 g ai/ha, read-out: damage to plant, Barnyardgrass (100=total damage to plant; 0=no damage to plant)
# In short: as §1
# [4] = system: giant foxtail (Setaria faberi); experiment: Test G Post-Emergence Protocol; settings: Setaria faberi, post-emergence, 312 h; for pest or weed control at 15.625 g/ha: 15.625 g ai/ha, evaluated after 13 days (100=total damage to plant; 0=no damage to plant), read-out: Foxtail, Giant damage rating; for pest or weed control at 62.5 g/ha: 62.5 g ai/ha, read-out: Foxtail, Giant damage rating (100=total damage to plant; 0=no damage to plant); for pest or weed control at 62.5 g/ha / pest or weed control at 250 g/ha: evaluated after 13 days; for pest or weed control at 250 g/ha: 250 g ai/ha, read-out: damage to plant, Foxtail, Giant (100=total damage to plant; 0=no damage to plant)
# In short: as §1
# [5] = system: redroot pigweed (Amaranthus retroflexus); experiment: Test G Post-Emergence Protocol; settings: Amaranthus retroflexus, post-emergence, 312 h; for pest or weed control at 15.625 g/ha: 15.625 g ai/ha, evaluated after 13 days (100=total damage to plant; 0=no damage to plant), read-out: Pigweed, Redroot damage rating; for pest or weed control at 62.5 g/ha: 62.5 g ai/ha, read-out: Pigweed, Redroot damage rating (100=total damage to plant; 0=no damage to plant); for pest or weed control at 62.5 g/ha / pest or weed control at 250 g/ha: evaluated after 13 days; for pest or weed control at 250 g/ha: 250 g ai/ha, read-out: damage to plant, Pigweed, Redroot (100=total damage to plant; 0=no damage to plant)
# In short: as §1
# corn (Zea mays) [6] = experiment: Test G Post-Emergence Protocol; settings: Zea mays, post-emergence, 312 h; for plant injury at 15.625 g/ha: 15.625 g ai/ha, evaluated after 13 days (100=total damage to plant; 0=no damage to plant), read-out: Corn damage rating; for plant injury at 62.5 g/ha: 62.5 g ai/ha, read-out: Corn damage rating (100=total damage to plant; 0=no damage to plant); for plant injury at 62.5 g/ha / plant injury at 250 g/ha: evaluated after 13 days; for plant injury at 250 g/ha: 250 g ai/ha, read-out: damage to plant, Corn (100=total damage to plant; 0=no damage to plant)
# In short: as §1
# [7] = system: ivy-leaved morning glory (Ipomoea hederacea); experiment: Test G Pre-Emergence Protocol; settings: Ipomoea, pre-emergence, 312 h, evaluated after 13 days; for pest or weed control at 15.625 g/ha: 15.625 g ai/ha, read-out: Morning-glory, Ivy-leaved damage rating (100=total damage to plant; 0=no damage to plant); for pest or weed control at 62.5 g/ha: 62.5 g ai/ha, 100=total damage to plant, 0=no damage to plant, read-out: plant damage rating, Morningglory, Ivy-leaved; for pest or weed control at 250 g/ha: 250 g ai/ha, read-out: Morningglory, Ivy-leaved damage rating (100=total damage to plant; 0=no damage to plant)
# In short: (§2)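 Pre-emergence spray, 15.625/62.5/250 g/ha, vehicle acetone:water 50:50 + 0.5% Tween 20, applied 1 d after sowing. Glasshouse 24/16° C, 14 h light, 65% RH, watered twice daily. Visual damage rating at 13 d, 0–100 scale.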
# [8] = system: velvetleaf (Abutilon theophrasti); experiment: Test G Pre-Emergence Protocol; settings: Abutilon theophrasti, pre-emergence, 312 h, evaluated after 13 days; for pest or weed control at 15.625 g/ha: 15.625 g ai/ha; for pest or weed control at 15.625 g/ha / pest or weed control at 250 g/ha: read-out: Velvetleaf damage rating (100=total damage to plant; 0=no damage to plant); for pest or weed control at 62.5 g/ha: 62.5 g ai/ha, 100=total damage to plant, 0=no damage to plant, read-out: plant damage rating, Velvetleaf; for pest or weed control at 250 g/ha: 250 g ai/ha
# In short: as §2
# [9] = system: barnyardgrass (Echinochloa crus-galli); experiment: Test G Pre-Emergence Protocol; settings: Echinochloa crus-galli, pre-emergence, 312 h, evaluated after 13 days; for pest or weed control at 15.625 g/ha: 15.625 g ai/ha, read-out: Barnyard grass damage rating (100=total damage to plant; 0=no damage to plant); for pest or weed control at 62.5 g/ha: 62.5 g ai/ha, 100=total damage to plant, 0=no damage to plant, read-out: plant damage rating, Barnyardgrass; for pest or weed control at 250 g/ha: 250 g ai/ha, read-out: Barnyardgrass damage rating (100=total damage to plant; 0=no damage to plant)
# In short: as §2
# [10] = system: giant foxtail (Setaria faberi); experiment: Test G Pre-Emergence Protocol; settings: Setaria faberi, pre-emergence, 312 h, evaluated after 13 days; for pest or weed control at 15.625 g/ha: 15.625 g ai/ha; for pest or weed control at 15.625 g/ha / pest or weed control at 250 g/ha: read-out: Foxtail, Giant damage rating (100=total damage to plant; 0=no damage to plant); for pest or weed control at 62.5 g/ha: 62.5 g ai/ha, 100=total damage to plant, 0=no damage to plant, read-out: plant damage rating, Foxtail, Giant; for pest or weed control at 250 g/ha: 250 g ai/ha
# In short: as §2
# [11] = system: redroot pigweed (Amaranthus retroflexus); experiment: Test G Pre-Emergence Protocol; settings: Amaranthus retroflexus, pre-emergence, 312 h, evaluated after 13 days; for pest or weed control at 15.625 g/ha: 15.625 g ai/ha; for pest or weed control at 15.625 g/ha / pest or weed control at 250 g/ha: read-out: Pigweed, Redroot damage rating (100=total damage to plant; 0=no damage to plant); for pest or weed control at 62.5 g/ha: 62.5 g ai/ha, 100=total damage to plant, 0=no damage to plant, read-out: plant damage rating, Pigweed, Redroot; for pest or weed control at 250 g/ha: 250 g ai/ha
# In short: as §2
# corn (Zea mays) [12] = experiment: Test G Pre-Emergence Protocol; settings: Zea mays, pre-emergence, 312 h, evaluated after 13 days; for plant injury at 15.625 g/ha: 15.625 g ai/ha; for plant injury at 15.625 g/ha / plant injury at 250 g/ha: read-out: Corn damage rating (100=total damage to plant; 0=no damage to plant); for plant injury at 62.5 g/ha: 62.5 g ai/ha, 100=total damage to plant, 0=no damage to plant, read-out: plant damage rating, Corn; for plant injury at 250 g/ha: 250 g ai/ha
# In short: as §2
SMILES,pest or weed control at 15.625 g/ha [1] [%],pest or weed control at 62.5 g/ha [1] [%],pest or weed control at 250 g/ha [1] [%],pest or weed control at 15.625 g/ha [2] [%],pest or weed control at 62.5 g/ha [2] [%],pest or weed control at 250 g/ha [2] [%],pest or weed control at 15.625 g/ha [3] [%],pest or weed control at 62.5 g/ha [3] [%],pest or weed control at 250 g/ha [3] [%],pest or weed control at 15.625 g/ha [4] [%],pest or weed control at 62.5 g/ha [4] [%],pest or weed control at 250 g/ha [4] [%],pest or weed control at 15.625 g/ha [5] [%],pest or weed control at 62.5 g/ha [5] [%],pest or weed control at 250 g/ha [5] [%],plant injury at 15.625 g/ha (corn (Zea mays) [6]) [%],plant injury at 62.5 g/ha (corn (Zea mays) [6]) [%],plant injury at 250 g/ha (corn (Zea mays) [6]) [%],pest or weed control at 15.625 g/ha [7] [%],pest or weed control at 62.5 g/ha [7] [%],further results
CN1C[C@@H](c2cc(Cl)nc(Cl)c2)[C@H](C(=O)Nc2cccc(F)c2F)C1=O (racemic) [Compound 1494],10,40,50,0,0,30,30,60,50,60,60,60,0,0,0,10,30,80,0,0,pest or weed control at 250 g/ha [7]: 70%; pest or weed control at 15.625 g/ha [8]: 0%; pest or weed control at 62.5 g/ha [8]: 0%; pest or weed control at 250 g/ha [8]: 0%; pest or weed control at 15.625 g/ha [9]: 80%; pest or weed control at 62.5 g/ha [9]: 80%; pest or weed control at 250 g/ha [9]: 90%; pest or weed control at 15.625 g/ha [10]: 70%; pest or weed control at 62.5 g/ha [10]: 80%; pest or weed control at 250 g/ha [10]: 80%; pest or weed control at 15.625 g/ha [11]: 0%; pest or weed control at 62.5 g/ha [11]: 0%; pest or weed control at 250 g/ha [11]: 30%; plant injury at 15.625 g/ha (corn (Zea mays) [12]): 0%; plant injury at 62.5 g/ha (corn (Zea mays) [12]): 20%; plant injury at 250 g/ha (corn (Zea mays) [12]): 60%
CN1C[C@H](c2ccc3c(c2)CCCC3)[C@@H](C(=O)Nc2cccc(F)c2F)C1=O (racemic) [Compound 1496],0,0,0,0,0,20,20,50,60,20,60,60,0,0,0,10,20,50,0,0,pest or weed control at 250 g/ha [7]: 0%; pest or weed control at 15.625 g/ha [8]: 0%; pest or weed control at 62.5 g/ha [8]: 0%; pest or weed control at 250 g/ha [8]: 0%; pest or weed control at 15.625 g/ha [9]: 0%; pest or weed control at 62.5 g/ha [9]: 40%; pest or weed control at 250 g/ha [9]: 80%; pest or weed control at 15.625 g/ha [10]: 0%; pest or weed control at 62.5 g/ha [10]: 50%; pest or weed control at 250 g/ha [10]: 80%; pest or weed control at 15.625 g/ha [11]: 0%; pest or weed control at 62.5 g/ha [11]: 0%; pest or weed control at 250 g/ha [11]: 0%; plant injury at 15.625 g/ha (corn (Zea mays) [12]): 0%; plant injury at 62.5 g/ha (corn (Zea mays) [12]): 0%; plant injury at 250 g/ha (corn (Zea mays) [12]): 20%
CN1C[C@H](c2ccc(C(F)(F)F)cc2)[C@@H](C(=O)Nc2cccc(C(F)F)c2)C1=O (racemic) [Compound 1498],0,0,0,0,0,0,0,0,30,0,0,30,0,0,0,0,0,0,0,0,pest or weed control at 250 g/ha [7]: 0%; pest or weed control at 15.625 g/ha [8]: 0%; pest or weed control at 62.5 g/ha [8]: 0%; pest or weed control at 250 g/ha [8]: 0%; pest or weed control at 15.625 g/ha [9]: 0%; pest or weed control at 62.5 g/ha [9]: 0%; pest or weed control at 250 g/ha [9]: 20%; pest or weed control at 15.625 g/ha [10]: 0%; pest or weed control at 62.5 g/ha [10]: 0%; pest or weed control at 250 g/ha [10]: 10%; pest or weed control at 15.625 g/ha [11]: 0%; pest or weed control at 62.5 g/ha [11]: 0%; pest or weed control at 250 g/ha [11]: 0%; plant injury at 15.625 g/ha (corn (Zea mays) [12]): 0%; plant injury at 62.5 g/ha (corn (Zea mays) [12]): 0%; plant injury at 250 g/ha (corn (Zea mays) [12]): 0%
